These results are taken from publication PMC7139549, “TLD1433 Photosensitizer Inhibits Conjunctival Melanoma Cells in Zebrafish Ectopic and Orthotopic Tumour Models” (Cancers, 2020).

Read-outs that look alike come from different tables or passages of the source.

The EC50 is the midpoint of the concentration-response curve.

One assay has as its system eye melanoma cells. Briefly: SRB cell viability assay, eye melanoma cells. Type of assay: cell-based, Human. The method, then: (§1) TLD1433 is known to generate reactive oxygen species (ROS) with high quantum efficacy in many cancer cell lines. However, there is no report of the in vitro toxicity of this compound in eye melanoma (UM) cell lines. We determined the cell viability of three conjunctival melanoma cell lines (CRMM1, CRMM2 and CM2005.1), and three uveal melanoma cell lines (OMM1, OMM2.5, MEL270) in the presence of TLD1433, both in the dark or under green light irradiation (21 mW/cm^2, 19 J/cm^2, 520 nm, 15 min), and compared this viability to epidermoid carcinoma A431 and cutaneous melanoma A375 cell lines under the same conditions. […] The phototoxicity index (PI), defined as the ratio of the dark EC50 to the light EC50, was also calculated and represents the amplification of TLD1433 activity with a light trigger. […]
At day 0, cells were detached using 1mL of trypsin, resuspended in 4 mL of media and transferred to a 15 mL corning falcon tube. Cells were counted using trypan blue and BioRad® TC20™ automated cell counter (Figure 11). Dilutions of 6000 (CRMM1), 6000 (CRMM2), 8000 (CM2005.1), 6000 (OMM1), 6000 (OMM2.5), 6000 (MEL270) 8000 (A431), and 4000 (A375) cells/well were calculated from each cell suspension at a final volume of 6 mL using the following formula: Vc=(Vt×10C)/Lc where Vt = total volume of solution, C = number of cells per well/per 100 μL and Lc = live cells count (cells/mL). […]

The test system of assay [1] is A431 epidermoid carcinoma cell line. In words: SRB cell viability assay, A431. It counts as cell-based, Human. As to the method:
as §1
(§2) Figure 2 Cell viability after TLD1433 treatment of eight tumour cell lines (CRMM1, CRMM2, CM2005.1, OMM1, OMM2.5, MEL270, A431, A375). […] The absorbance of Sulforhodamine B in solution was measured at 520 nm. […]
At day 0, cells were detached using 1mL of trypsin, resuspended in 4 mL of media and transferred to a 15 mL corning falcon tube. Cells were counted using trypan blue and BioRad® TC20™ automated cell counter (Figure 11). […] Next day, the dye was dissolved using Tri-base (0.25%) and absorbance of SRB at 510 nm was recorded from each well using a Tecan plate reader. […]

The test system of assay [2] is OMM2.5 uveal melanoma cell line. Briefly: SRB cell viability assay, OMM2.5. Type of assay: cell-based, Human. As to the method: TLD1433 is known to generate reactive oxygen species (ROS) with high quantum efficacy in many cancer cell lines. However, there is no report of the in vitro toxicity of this compound in eye melanoma (UM) cell lines. We determined the cell viability of three conjunctival melanoma cell lines (CRMM1, CRMM2 and CM2005.1), and three uveal melanoma cell lines (OMM1, OMM2.5, MEL270) in the presence of TLD1433, both in the dark or under green light irradiation (21 mW/cm^2, 19 J/cm^2, 520 nm, 15 min), and compared this viability to epidermoid carcinoma A431 and cutaneous melanoma A375 cell lines under the same conditions. The protocol used was based on previous work from the Bonnet group, and differed slightly from recommendations from McFarland et al.. […] The effective concentration (EC50) values, i.e., the concentration required to reduce cell viability by 50% compared to untreated wells, were assessed by fitting the dose-response curves with a Hill equation. The phototoxicity index (PI), defined as the ratio of the dark EC50 to the light EC50, was also calculated and represents the amplification of TLD1433 activity with a light trigger. […]
as §2
At day 0, cells were detached using 1mL of trypsin, resuspended in 4 mL of media and transferred to a 15 mL corning falcon tube. Cells were counted using trypan blue and BioRad® TC20™ automated cell counter (Figure 11). Dilutions of 6000 (CRMM1), 6000 (CRMM2), 8000 (CM2005.1), 6000 (OMM1), 6000 (OMM2.5), 6000 (MEL270) 8000 (A431), and 4000 (A375) cells/well were calculated from each cell suspension at a final volume of 6 mL using the following formula: Vc=(Vt×10C)/Lc where Vt = total volume of solution, C = number of cells per well/per 100 μL and Lc = live cells count (cells/mL). […] Next day, the dye was dissolved using Tri-base (0.25%) and absorbance of SRB at 510 nm was recorded from each well using a Tecan plate reader. […]

The next assay relates to other cell lines. Further details: method as in not given. As to conditions: reported for TLD1433 with other cell lines; ref not given; cited from earlier work.

`Cc1ccnc(-c2cc(C)ccn2)c1.Cc1ccnc(-c2cc(C)ccn2)c1.[Cl-].[Cl-].[Ru+2].c1csc(-c2ccc(-c3ccc(-c4nc5c6cccnc6c6ncccc6c5[nH]4)s3)s2)c1` [TLD1433]: the EC50 is roughly 1 µM with eye melanoma cells (dark, read-out: EC50 (dark toxicity)); greater than 5 µM in assay [1] (A431, dark, 24 h treatment, SRB, read-out: EC50, dark); 0.049 µM in assay [1] (A431, green light 520 nm, 15 min, 21 mW/cm^2, 19 J.cm^−2, DLI 24 h, read-out: EC50,light); 0.64 µM in assay [2] (OMM2.5, dark, 24 h treatment, SRB, read-out: EC50, dark); 0.013 µM in assay [2] (OMM2.5, green light 520 nm, 15 min, 21 mW/cm^2, 19 J.cm^−2, DLI 24 h, read-out: EC50,light). Also, the “EC50 upon light activation (in words)” value in the assay with eye melanoma cells (green light 19 J/cm^2) is listed as “in the nanomolar regime”. Besides, the “PI (photo index)” value in assay [2] (OMM2.5, ratio of dark and light EC50, 19 J.cm^−2 green light) was 49. Also, the PI in the assay on other cell lines is given as greater than 1000.
